Source: paper PMC3433420 (PLoS ONE, 2012)
Residues, ends and D or L forms follow the SMILES beside them.

Tests used:
PIK3R3-N SH2 domain = molecular target: T1, PIK3R3-N SH2 domain (Homo sapiens, UniProt Q92569); assay: FP saturation binding assay; details: high-confidence ErbB interactions
T1 construct: 6X His; thioredoxin; made in house; host or cells: E. coli BL21(DE3)pLysS
Protocol: (§1) (See Figure 1A) Rhodamine-labeled peptides were dissolved in assay buffer (20 mM HEPES, 100 mM KCl, 0.1% Tween-20, 5 mM DTT, pH 7.8), diluted to a concentration of 20 nM, and plated into black 384-well plates (Corning, Corning, NY) at 5 µL/well using a Perkin Elmer EP3 pipetting workstation (V&P Scientific, Inc., San Diego, CA). SH2, PTB, and thioredoxin control proteins were plated into the first column of 2 mL 96-well plates (Corning) at a concentration of 20 µM and serially diluted 1∶2 into freezing buffer (300 mM NaCl, 50 mM Na2PO4, pH 8, 20% glycerol v/v) eleven times using a Tecan Freedom EVO 100 workstation (Tecan, Männedorf, Switzerland). For the interaction assay, 5 µL of each of the twelve protein concentrations was added to the peptide-containing 384-well plates via the EP3 resulting in a protein dilution range of 0.002–10 µM and a final volume of 10 µL; peptide concentration was fixed at 10 nM. Peptide/protein samples were incubated for 20 minutes at room temperature in the dark and fluorescence polarization (FP) was measured in an Analyst GT multimode reader (Molecular Devices, Sunnyvale, CA) with excitation and emission wavelengths of 530 nm and 555 nm, respectively. Experimental values were output as millipolarization (mP) units and imported into MATLAB (The MathWorks, Inc., Natick, MA) in which equation (1) was used to determine dissociation constants (KDs) for each protein/peptide pairing by least squares nonlinear regression. [drawing 1] (1)
(§2) FP was described by the following equation: P=Iparallel-IperpendicularIparallel+Iperpendicular, where “P” denotes polarization, and “I” denotes the fluorescent intensity relative to the plane of incident light. Experimental values were output as millipolarization (mP) units and imported into MATLAB where the following equation was used to determine dissociation constants (KDs) for each protein/peptide pairing by least squares nonlinear regression:
(§3) Pobs=Pmax∙ProteinKD+Protein [picture] (1)
(§4) Peptides were initially tested for systematic plate effects across protein dilutions and nonspecific binding to thioredoxin by linear regression analysis and any effects were regressed out. The median baseline control polarization value for each plate was then subtracted from each data point to make each binding curve intersect at zero. Plates with excessive variation in baseline control polarizations on both a global and run-specific manner (Dixon’s Q test, p < 0.05) were excluded from further analysis. Outliers in each binding curve were identified and removed using an iterative procedure as follows. The residuals for each fit were used to calculate a global standard deviation of the residuals (GSDR) for each concentration of SH2 domain over all interactions, and individual data points with residuals < or > two GSDR from the global mean residual were flagged as outliers. The outlier with the largest residual from each interaction was removed and nonlinear regression was again performed. This procedure was repeated if additional outliers were identified for an interaction, discarding the interaction if the number of outliers exceeded three. […] In order to further control our false positive rate against hidden confounding variables producing binding artifacts, we sought to determine whether there was a significant relationship between the strength of an interaction and its technical replication rate at our stringent significance and filtering thresholds. We performed logistic regression on the proportion of successful replicates for each interaction query against KD for all interactions (Figure S15A). […] This is related to the observation that the majority of interactions detected by FP are tight (Figure S15B). With this logit model, we assigned a probability to each peptide-protein interaction in our data by using a binomial proportions test to compare the observed versus the expected replication rate at the particular KD of that interaction (Table S4). […]

[1] = molecular target: PIK3R2-NC tandem SH2 domains (Homo sapiens, UniProt O00459); assay: FP saturation binding assay
PIK3R2-NC tandem SH2 domains, sequence (O00459 330-716 limits assumed): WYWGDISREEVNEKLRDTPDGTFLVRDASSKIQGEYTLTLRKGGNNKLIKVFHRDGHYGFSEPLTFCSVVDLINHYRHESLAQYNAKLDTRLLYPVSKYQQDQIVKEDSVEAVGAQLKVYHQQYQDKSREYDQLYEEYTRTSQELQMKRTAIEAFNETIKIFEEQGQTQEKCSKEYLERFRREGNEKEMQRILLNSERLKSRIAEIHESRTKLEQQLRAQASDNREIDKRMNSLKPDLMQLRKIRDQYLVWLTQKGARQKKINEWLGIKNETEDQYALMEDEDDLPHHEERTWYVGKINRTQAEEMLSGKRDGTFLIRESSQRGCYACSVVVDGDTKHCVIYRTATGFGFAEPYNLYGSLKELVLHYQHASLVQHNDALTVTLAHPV

[2] = molecular target: T2, PLCG1-NC tandem SH2 domains (Homo sapiens, UniProt P19174); assay: FP saturation binding assay; details: Protein PLCG1-NC; FP saturation binding, high-confidence ErbB interactions; mean over replicate hits
T2 construct: the tandem protein was included in our analysis with all internal amino acids linking the domains; 6X His; thioredoxin; made in house; host or cells: E. coli BL21(DE3)pLysS
T2 sequence (P19174 550-756 limits assumed): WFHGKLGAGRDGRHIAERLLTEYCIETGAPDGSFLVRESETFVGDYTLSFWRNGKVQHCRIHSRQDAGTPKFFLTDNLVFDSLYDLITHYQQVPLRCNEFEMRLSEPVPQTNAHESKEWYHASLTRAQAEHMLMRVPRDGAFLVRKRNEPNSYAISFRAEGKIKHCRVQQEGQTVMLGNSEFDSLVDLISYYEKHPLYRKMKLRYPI
Protocol: as §1, with “Peptide/protein samples were incubated for 20 minutes at room temperature in the dark and fluorescence polarization (FP) was measured in an Analyst GT multimode reader (Molecular Devices, Sunnyvale, CA) with excitation and emission wavelengths of 530 nm and 555 nm, respectively.” left out
as §2, §3
Peptides were initially tested for systematic plate effects across protein dilutions and nonspecific binding to thioredoxin by linear regression analysis and any effects were regressed out. The median baseline control polarization value for each plate was then subtracted from each data point to make each binding curve intersect at zero. Plates with excessive variation in baseline control polarizations on both a global and run-specific manner (Dixon’s Q test, p < 0.05) were excluded from further analysis. Outliers in each binding curve were identified and removed using an iterative procedure as follows. The residuals for each fit were used to calculate a global standard deviation of the residuals (GSDR) for each concentration of SH2 domain over all interactions, and individual data points with residuals < or > two GSDR from the global mean residual were flagged as outliers. The outlier with the largest residual from each interaction was removed and nonlinear regression was again performed. This procedure was repeated if additional outliers were identified for an interaction, discarding the interaction if the number of outliers exceeded three. […] In order to further control our false positive rate against hidden confounding variables producing binding artifacts, we sought to determine whether there was a significant relationship between the strength of an interaction and its technical replication rate at our stringent significance and filtering thresholds. We performed logistic regression on the proportion of successful replicates for each interaction query against KD for all interactions (Figure S15A). […] “High-confidence” FP interactions are defined as those having 1 - P(Observed Replication Rate | Expectation) > 0.5 and that have replicated at least twice across independent FP runs. […] The compiled FP data were organized into heatmaps generated by MATLAB and relative binding strength (µM). Peptides without at least one positive hit were classified as “no interaction” if there was no homologous sequence (i.e. identical at the +1 to +4 positions relative to the phosphotyrosine) that produced a positive interaction within the ErbB receptor family.

[3] = molecular target: T3, PIK3R3-NC tandem SH2 domains (Homo sapiens, UniProt Q92569); assay: FP saturation binding assay; details: protein PIK3R3-NC; FP, high-confidence ErbB interactions; mean of replicate hits
T3 construct: the tandem protein was included in our analysis with all internal amino acids linking the domains; 6X His; thioredoxin; made in house; host or cells: E. coli BL21(DE3)pLysS
Protocol: as §1, §2, §3, §4

[4] = system: 93 human SH2 domains and 2 phosphotyrosine binding (PTB) domains; assay: FP saturation binding assay, whole domain panel (protein named per line or not at all); details: for interaction with the SH2/PTB domain panel: KD <= 20 µM counted as interaction; for SH2 domains found to interact: high-confidence interactions (Table S11, Figure S14)
Protocol: as §1
To scale up the number of interaction measurements while minimizing variation introduced by human intervention, we utilized an automated robotic platform (Figure 1A; see experimental procedures and Supplementary Methods) to transfer, incubate, and measure the fluorescence polarization (FP) induced from interactions of a titration series of SH2 domains with synthetic rhodamine-labeled ErbB phosphopeptides. Experimental values were output as millipolarization (mP) units and equation (1) was used to fit apparent midpoint dissociation constants (KDs) for each protein/peptide pair using non-linear regression (see experimental procedures).
For this interaction analysis, we synthesized and queried the interaction of phosphopeptides corresponding to 89 of 92 ErbB family intracellular tyrosines with 93 SH2 domains. Because nine peptide sequences share 100% identity between the receptors in the 4 to 7 amino acids C-terminal to the phosphorylated tyrosine, our peptide set consisted of 81 phosphopeptides corresponding to the 89 unique tyrosine containing sequences (Table S2). This peptide set represents a 50% increase over the three PM studies performed to date. We were therefore able to obtain a more systematic and unbiased view of the relative SH2 domain recruitment potential of each receptor. Although most ErbB receptor auto-phosphorylation sites have been detected frequently by mass spectrometry because of their high relative modification stoichiometry, non-auto-phosphorylation sites have been reported less frequently in the literature (Table S3). We reasoned that many physiologically relevant and uncharacterized ErbB tyrosines of low phosphorylation stoichiometry may exist and that our comprehensive interaction analysis might implicate their importance in mediating physiological interactions. We tested the majority of interactions (7099/8160 (87.0%); Figure S3) three or more times and reported standard error for all interactions that were detected in at least three FP runs (Table S4). […] Analysis of this polarization data may be useful for inferring how SH2 proteins bind to different peptide sequences. Larger proteins and proteins binding closer to the N-terminal rhodamine tag of a given peptide would be expected to induce higher maximal polarization (the calculated maximal polarization value at infinite protein concentration) than proteins binding farther from the tag. In addition to phosphopeptides, we queried a representative set of 27 non-phosphopeptides against the entire domain set. […]

Molecule	interaction with the SH2/PTB domain panel [4]	SH2 domains found to interact [4]	other results
CC(C)C[C@H](NC(=O)CNC(=O)[C@H](CC(C)C)NC(=O)[C@H](Cc1ccc(OP(=O)(O)O)cc1)NC(=O)[C@H](CCC(=O)O)NC(=O)[C@@H]1CCCN1C(=O)[C@H](CC(N)=O)NC(=O)[C@@H](N)CCC(=O)O)C(=O)N[C@@H](CC(=O)O)C(=O)N[C@H](C(=O)N1CCC[C@H]1C(=O)N[C@H](C(=O)N[C@@H](CC(=O)O)C(=O)O)C(C)C)C(C)C [ErbB2 1248 13-mer] (HELM PEPTIDE1{E.N.P.E.[O=C([C@H](Cc1ccc(OP(=O)(O)O)cc1)N[*:1])[*:2]].L.G.L.D.V.P.V.D}$$$$V2.0)			Kd (PIK3R3-N SH2 domain; Protein PIK3R3-N, FP saturation binding, mean over replicate hits): 11.2 µM; Kd [1]: 9.9 µM; Kd [2]: 9.97 µM
CSCC[C@H](NC(=O)[C@H](Cc1ccc(O)cc1)NC(=O)[C@H](CCC(=O)O)NC(=O)[C@H](Cc1ccc(OP(=O)(O)O)cc1)NC(=O)[C@H](CCC(=O)O)NC(=O)[C@H](CCC(=O)O)NC(=O)[C@H](CC(=O)O)NC(=O)[C@@H](N)CCC(=O)O)C(=O)N[C@@H](CC(N)=O)C(=O)N[C@@H](CCCNC(=N)N)C(=O)N[C@@H](CCCNC(=N)N)C(=O)N[C@@H](CCCNC(=N)N)C(=O)N[C@@H](CC(=O)O)C(=O)O [ErbB3 1197 13-mer] (HELM PEPTIDE1{E.D.E.E.[O=C([C@H](Cc1ccc(OP(=O)(O)O)cc1)N[*:1])[*:2]].E.Y.M.N.R.R.R.D}$$$$V2.0)			Kd [3]: 0.2 µM; Kd (PIK3R3-N SH2 domain; protein PIK3R3-N, FP, mean of replicate hits): 1.32 µM
DAEEpYLVPQAFN [ErbB4 pY1022, N-terminally rhodamine-labeled 13-mer phosphopeptide]	did not produce any interaction hits		
DVWSpYGVTIWELd [ErbB4 pY906, N-terminally rhodamine-labeled 13-mer phosphopeptide]	reproducibly interacted at high affinity with many SH2 domains	interacted with ZAP70, GRB7, and GRB10 SH2 domains	
KIRKpYTMRRLLQd [ErbB2 pY685, N-terminally rhodamine-labeled 13-mer phosphopeptide]	reproducibly interacted at high affinity with many SH2 domains	interacted with SOCS family SH2 domains	
